{"source": "patent US10899815B2", "about": "“Compositions and methods of using islet neogenesis peptides and analogs thereof” (SHENZHEN HIGHTIDE BIOPHARMACEUTICAL, LTD., priority 2013, dated 2021)", "key": {"[1]": {"system": "STZ induced diabetic mice model", "assay": "Efficacy in streptozotocin (STZ) induced diabetic mice model", "format": "in vivo, C57BL/6J mice", "settings": "5 mg/kg or 25 mg/kg for 20 days", "description": "After acclimatization in the animal facility for one week, 6-8 weeks old C57BL/6J mice were administered low dose STZ at 40 mg/kg in citrate buffer for 5 consecutive days to establish a TID animal model. Mice with blood glucose greater than 16.7 mmol/L at 5 days post last STZ injection were included in the study. These mice were then treated with INGAP-PP (Peptide 1) or Peptide 7 at the closes of 5 mg/kg (2.5 mg/kg, bid (twice a day)) or 25 mg/kg (12.5 mg/kg, bid) for 20 days before sacrifices. Two additional groups of diabetic mice were administered either saline or a peptide (Peptide 3) composed of a scrambled sequence of amino acids from Peptide 1 as control groups. Blood glucose and insulin levels were measured, and 20 days post the last dosing of test agents, an oral glucose tolerance test (OGTT) was performed in 6 hour fasted animals to determine the effect of Peptide 1 and Peptide 7. Blood samples obtained from the tail cut for glucose determination were detected with an ACCU-CHEK™ glucometer (Roche, ACCU-CHEK® Active), and insulin levels were determined with Rat/Mouse Insulin Elisa kit (Millipore, Billerica, Mass. USA). For the OGTT, after the measurement of the basal glucose concentration (T=−30 min), mice received an oral glucose challenge at 2 g/kg and glucose values were determined by glucometer at 0, 15, 30, 60, 90 and 120 min."}, "normal C57BL/6J mice": {"system": "normal C57BL/6J mice", "assay": "Induction of small β-cell clusters in normal mice", "format": "in vivo", "settings": "for body weight, blood glucose, plasma insulin, pancreas insulin, or pancreas weight: compared to saline group", "description": "After a 1-week acclimation, C57BL/6J female mice were randomly divided into 4 groups. The two control groups received either 10 mL/kg sterile normal saline (n=4) or scrambled peptide (Peptide 3, 25 mg/kg) (n=5) via subcutaneous injection for 10 days. The other two groups received INGAP-PP (Peptide 1) or INGAP-PP analog Peptide 7 at a dose of 25 mg/kg per day respectively (n=7 per group) for the same period. Body weight and 6 hour fasting blood glucose were measured before treatment and after the last dosing of treatment. Plasma and pancreatic insulin were also measured at the end of the study. On day 11, the pancreas was removed from each animal, cleared of fat and lymph nodes, weighed, and fixed in 10% neutral buffered formalin (NBF) for no longer than 24 hours before processing for morphometric analysis.\nImmunohistochemistry analysis was used to determine pancreatic islet size distribution."}, "pancreatic islets": {"system": "pancreatic islets", "assay": "Glucose-stimulated insulin secretion (GSIS) of isolated islets", "format": "cell-based, Sprague-Dawley (SD) rats", "settings": "rat islets, 12.0 mM glucose, 10 μg/mL peptide (GLP-1 100 nM), 60 min, FIG. 8", "description": "The pancreases were procured from male adult Sprague-Dawley (SD) rats. After 7 days acclimation, the animals were sacrificed by cervical dislocation and the entire pancreas was removed and digested with collagenase to isolate islets. After digestion, islets were maintained at 37° C. in RPMI 1640 (Carlsbad, Calif., USA) pH 7.4, containing 10% (v/v) fetal calf serum, 1% penicillin/streptomycin, and 10 mM glucose in a humid atmosphere (5% CO2/95% O2), without the addition of any compound (control), or with the addition of 100 nM glucagon like peptide-1 (GLP-1); or 10 μg/mL Peptide 1, Peptide 12, or Peptide 16, as summarized in Table 4 below. Cultured islets were rinsed in Krebs-Ringer bicarbonate buffer (KRB), pH 7.4, previously gassed with a mixture CO2/O2 (5/95%), and pre-incubated in 1.0 ml KRB containing 0.5% (w/v) BSA and 1.5 mM glucose at 37° C. for 45 min. After this period, groups of 5 islets were incubated in 0.6 ml KRB with the addition of 1.5 or 12.0 mM glucose, with or without the addition of peptides for 60 min. At the end of the incubation period, aliquots of the medium were collected for insulin quantitation."}, "[2]": {"assay": "Peptide stability in mouse plasma", "format": "in vitro ADME", "settings": "100 μg/mL, 37° C., LC-MS/MS, FIG. 3 and FIG. 5", "description": "The stability of peptides was also tested in mouse and human plasma. Briefly, a certain amount of peptides and eucatropine powder (positive control) was accurately weighed. Test compounds were dissolved in 50% methanol-water solution and diluted to 20 mg/mL, and eucatropine was dissolved in dimethylsulfoxide (DMSO) and diluted to 10 mM, as a stock solution. Eucatropine stock solution was diluted to 0.2 mM with DMSO as a working solution. A stop reagent was prepared containing 200 ng/mL midazolam and tolbutamide in acetonitrile. A volume of 300 μL of stop solution was added to each well of a 96-well deep-well plate placed on ice beforehand.\nFor the stability studies, peptides and eucatropine were spiked into plasma respectively, mixed well, and then 100 μL of each mixture solution was transferred into the pre-cooled stop reagent as 0 time point sample. The remaining mixtures were incubated in a 37° C. water bath with shaking at 100 rpm (n=2). The final incubation concentration was 1 μM for eucatropine and 100 μg/mL for all test compounds.\nAt desired time points, 100 μl, of incubation mixture was transferred to the stop reagent to precipitate proteins. Samples were vortexed and centrifuged at RCF 5000-g for 10 minutes, and supernatant was transferred to a test plate. The samples were analyzed by LC-MS/MS.\nSlope was calculated by plotting the natural logarithm of the percentage or remaining amount of test compounds and time, and T12 was calculated in accordance with the following formula.\nFor stability in mouse plasma, the incubation time was 0, 5, 15, 30 and 60 min for Peptide 1 and eucatropine, 0, 15, 30, 60, 120, 240 and 480 min for Peptide 12, Peptide 16 and Peptide 29.\nIn another stability study in mouse plasma, the incubation time was 0, 30, 60 and 120 min for Peptide 2 and eucatropine; 0, 30, 60, 120, 240 and 960 min for Peptide 52 and Peptide 54."}, "[3]": {"assay": "Peptide stability in culture medium", "format": "physicochemical", "settings": "F-12K medium, 0.25 mg/mL, 37° C., 0-72 hours, HPLC, FIG. 2", "description": "To determine the stability of peptides in culture medium, a certain amount of selected peptides was accurately weighed and dissolved in distilled water to 5 mg/mL as a stock solution. The stock solution was diluted to 0.25 mg/mL with F-12K medium (Gibco-BRL, Gaithersburg, Md., USA) as working solution. A volume of 100 μL of each working solution was transferred into individual sample vials. The sample vials were incubated in a 37° C. incubator for 0, 24, 48 and 72 hours before being analyzed and quantitated by HPLC."}, "Pharmacokinetics in rat": {"assay": "Pharmacokinetics in rat", "format": "in vivo, Sprague-Dawley (SD) rats", "settings": "rat, in vivo, 25 mg/kg", "description": "After 7 days acclimation, male Sprague-Dawley (SD) rats weighing 210-250 g, or male C57BL/6 mice, weighing 19-24 g, in good health were used in the study. Peptide 1, Peptide 12 and Peptide 16 were dissolved in sterile normal saline and then they were injected via subcutaneous (sc) bolus or intravenous (iv) bolus at the dose level of 25 mg/kg. Three animals in each group were used for blood collection at the time point of 5 min, 15 min, 30 min, 1 h, 2 h, 4 h, 6 h, 8 h and 24 h post-dose. Blood samples (approximately 400 μL) were collected and placed into tubes containing EDTA-K2 and centrifuged at 8000 rpm for 6 minutes at 4° C. to separate plasma front the samples. The resulting plasma was stored frozen at −80° C. until being analyzed. Plasma concentrations of peptides were determined using tandem mass spectrometry (LC-MS/MS) analysis. A non-compartmental module of WinNonlin® Professional 5.2 (Pharsight; St. Louis, Mo.), was used to calculate PK parameters. The abbreviation AUC(0-t) represents area under the curve front the time of dosing to the time of the last observation, the AUC(0-∞) represents area under the curve from the time of dosing to infinity, and the Cmax represents maximum concentration detected."}, "[4]": {"settings": "normal mice, 25 mg/kg sc for 10 days"}}, "note": "Ends that are not written are not given here."}
{"substance": "H-IGLHDPSHGTLPNGS-OH [Peptide 1, H-IGLHDPSHGTLPNGS-OH, reference compound]", "values": [{"measurement": "body weight or pancreas weight", "setting": "[1]", "result": "did not affect"}, {"measurement": "number of islets, islet size ranging from 2.1 to 0.7", "setting": "normal C57BL/6J mice; normal female C57BL/6J mice, 25 mg/kg per day for 10 days, islet size as Log [μm^2], FIG. 7", "result": "only observed in islet size of 2.1"}, {"measurement": "body weight, blood glucose, plasma insulin, pancreas insulin, or pancreas weight", "setting": "normal C57BL/6J mice; [4]", "result": "did not affect"}, {"measurement": "glucose-stimulated insulin secretion versus islets without peptides", "setting": "pancreatic islets", "result": "no stimulation"}]}
{"substance": "GLP-1: Glucagon like peptide-1, positive control at 100 nM in GSIS (HAEGTFTSDVSSYLEGQAAKEFIAWLVKGR; ends and bridges not checked; UniProt P01275 98-127, looked up) [reference compound]", "values": [{"measurement": "glucose-stimulated insulin secretion versus islets without peptides", "setting": "pancreatic islets", "result": "released significantly more insulin"}]}
{"substance": "H-SHPNGSGTIGLHDPL-OH [Peptide 3, H-SHPNG SGTIG LHDPL-OH]", "values": [{"measurement": "all parameters measured, versus normal saline", "setting": "normal C57BL/6J mice; [4]", "result": "no difference"}, {"measurement": "body weight, blood glucose, plasma insulin, pancreas insulin, or pancreas weight", "setting": "normal C57BL/6J mice; [4]", "result": "did not affect"}]}
{"substance": "Ac-IGLHDPTQGTEPNGE-OH [Peptide 54, Ac-IGLHDPTQGTEPNGE-OH]", "values": [{"measurement": "stability in mouse plasma", "setting": "[2]", "result": "good stability in mouse plasma and were significantly more stable than HIP"}]}
{"substance": "Ac-IGLHDPSHGTLPAGS-NH2 [Peptide 29, Ac-IGLHDPSHGTLPAGS-NH2]", "values": [{"measurement": "stability in mouse plasma", "setting": "[2]", "result": "good stability in mouse plasma and were more stable than INGAP-PP"}]}
{"substance": "H-IGLHAPSHGTLPAGS-OH [Peptide 8]", "values": [{"measurement": "stability in culture medium", "setting": "[3]", "result": "significantly more stable than INGAP-PP peptide"}]}
{"substance": "Ac-IGLHDPTQGTEPAGE-OH [Peptide 52, Ac-IGLHDPTQGTEPAGE-OH]", "values": [{"measurement": "stability in mouse plasma", "setting": "[2]", "result": "good stability in mouse plasma and were significantly more stable than HIP"}]}
{"substance": "Ac-IGLHDPSHGTLPAGS-OH [Peptide 12, Ac-IGLHDPSHGTLPAGS-OH]", "values": [{"measurement": "PK properties (AUC and Cmax) compared to INGAP-PP", "setting": "Pharmacokinetics in rat", "result": "marked improved PK properties"}, {"measurement": "glucose-stimulated insulin secretion versus islets without peptides", "setting": "pancreatic islets", "result": "released significantly more insulin"}]}
